According to patent EP2808342B1, “Medium for in-vitro toxicity testing and in-vitro toxicity test method using the same” (priority 2013, dated 2014):

How the values were obtained:
[1] = tested on: N2a cells; assay: Toxicity test (CCK-8 cell proliferation assay) on 3D cell clusters grown on REP-coated plates; format: cell-based; conditions: Cell Cluster of Ex. 2 (A), REP-plate
Experimental: REP was dissolved at a concentration of 10 µM in phosphate buffered saline (PBS), and the 10 µM REP solution was aliquoted in an amount of 50 µl per well into 96-well polystyrene plates and incubated for 1 hr at 37°C. The supernatant was removed from each well to leave REP to adhere to the plates.
(§1) N2a cells ([…], purchased from the ATCC, USA) were seeded at a density of 5x10^5 cells/well into the culture plates coated with REP prepared in Example 1 (hereinafter referred to as "REP-plate"). The cell culture medium was Eagle's Minimum Essential Medium (EMEM) supplemented with 2 mM glutamine, 1 mM sodium pyruvate, 1.5 g/l sodium bicarbonate, 100 units/ml penicillin and 100 µg/ml streptomycin. The REP-plates where N2a cells were seeded were incubated for 3 days at 37°C in a 5% CO2 atmosphere with humidity of 95% to afford the formation of 3D cell clusters.
(§2) To the cell clusters obtained in Example 2 or the cells obtained in Comparative Example 1 was added a solution of PFOA (perfluorooctanoic acid, Mw 414.1 g/mol, Sigma-Aldrich, 171468-5G, 96%) with a concentration of 5 µM, 20 µM, 50 µM, 100 µM, 200 µM, 300 µM, 400 µM, 500 µM, 600 µM, 700 µM, 800 µM, 900 µM, 1,000 µM or 2,000 µM. After 3, 24 or 48 hrs of incubation, the cells were assayed for proliferation using a cell counting kit-8 (CCK-8, Dojindo, Japan).
(§3) The PFOA solution was made by dissolving PFOA in dimethyl sulfoxide (DMSO, Sigma-Aldrich, USA) at a final concentration of 5 µM, 20 µM, 50 µM, 100 µM, 200 µM, 300 µM, 400 µM, 500 µM, 600 µM, 700 µM, 800 µM, 900 µM, 1,000 µM or 2,000 µM.
(§4) For the cell proliferation assay, absorbance (OD) at 450 nm was measured on an amicroplate reader (Multiskan, Thermo USA). From the measurements, inhibitory concentration (IC50) values were calculated using TOXCALC 5.0 (Tidepool Scientific Software, USA).
(§5) A solution of PFOS (perfluorooctane sulfonates; Mw 538.2, Sigma-Aldrich, 77282-10G, ≥98.0 (T)) with a concentration of 5 µM, 20 µM, 50 µM, 100 µM, 200 µM, 300 µM, 400 µM, 500 µM, 600 µM, 700 µM, 800 µM, 900 µM, 1,000 µM or 2, 000 µM was added to the cell clusters obtained in Example 2 and to the cells obtained in Comparative Example 1. After 3, 24 or 48 hrs of incubation, the cells were assayed for proliferation using a cell counting kit-8 (CCK-8, Dojindo, Japan).
(§6) The PFOS solution was made by dissolving PFOS in dimethyl sulfoxide (DMSO, Sigma-Aldrich, USA) at a final concentration of 5 µM, 20 µM, 50 µM, 100 µM, 200 µM, 300 µM, 400 µM, 500 µM, 600 µM, 700 µM, 800 µM, 900 µM, 1,000 µM or 2,000 µM.

[2] = tested on: N2a cells; assay: Toxicity test (CCK-8 cell proliferation assay) on cells cultured on plates not coated with REP; format: cell-based; conditions: Cultured Cell of C. Ex. 1 (B)
Experimental: as §1
Cells were cultured in the same manner as in Example 2, with the exception that the plates were not coated with REP.
as §2, §3, §4, §5, §6

[3] = Mus musculus, N2a, 3 hrs incubation
[4] = Mus musculus, N2a, 24 hrs incubation
[5] = Mus musculus, N2a, 48 hrs incubation

SMILES	IC50 [1, 3]	IC50 [1, 4]	IC50 [1, 5]	IC50 [2, 3]	IC50 [2, 4]	IC50 [2, 5]	IC50 ([1]; 3 hrs incubation)	IC50 ([1]; 24 hrs incubation)	IC50 ([1]; 48 hrs incubation)	IC50 ([2]; 3 hrs incubation)	IC50 ([2]; 24 hrs incubation)	IC50 ([2]; 48 hrs incubation)
O=C(O)C(F)(F)C(F)(F)C(F)(F)C(F)(F)C(F)(F)C(F)(F)C(F)(F)F [PFOA, perfluorooctanoic acid]	632 µM	495 µM	423 µM	511 µM	389 µM	310 µM						
O=S(=O)(O)C(F)(F)C(F)(F)C(F)(F)C(F)(F)C(F)(F)C(F)(F)C(F)(F)C(F)(F)F [PFOS, perfluorooctane sulfonates]							471 µM	355 µM	300 µM	196 µM	219 µM	220 µM
